Measured values as given in patent US10434190B2, “Pre-and-intra-operative localization of penile sentinel nodes” (NOVADAQ TECHNOLOGIES ULC, priority 2006, dated 2019).
“Also recorded” adds a separate entry of the source.

Assays:
[1] = system: mammals; settings: cited from earlier work; for neuronal toxicity: several months after the treatment
[2] = system: male Sprague-Dawley rats; experiment: Near infrared fluorescence (NIRF) imaging of lymph nodes after penile intracavernous ICG injection; type: in vivo, rat
Procedure: Twenty two 22 male Sprague-Dawley rats received penile intracavernous ICG injections (20 μl of 0.25 mg/ml). […] A Novadaq intraoperative NIRF imaging system (SPY®) was used for macroscopic fluorescence imaging and an Olympus NIRF microscope IX 70 (Olympus America, Inc., Center Valley, Pa.) was used for histology. All animals were anesthetized and shaved before imaging. All visualized nodes were sent for NIR microscopy and haematoxylin and eosin (H&E) staining for histological examination.
More than one pair of sentinel lymph nodes were visualized in 2 rats. […] Lymphatic channels were seen leading to sentinel lymph nodes at 6, 12 and 24 hours (FIG. 1). […] (FIG. 1). […] Thus, NIR fluorescence using ICG facilitates both pre- and intraoperative identification of the first site of penile lymphatic drainage. The methods of the invention should therefore improve the accuracy of surgical staging in patients with penile carcinomas.

[3] = 806 nm excitation light; cited from earlier work
[4] = cited from earlier work

Compound: Fast Blue
- toxicity in mammals [1]: low evidence of toxicity
- neuronal toxicity [1]: without evidence of neuronal toxicity

Compound: CC1(C)C(/C=C/C=C/C=C/C=C2\N(CCCCS(=O)(=O)[O-])c3ccc4ccccc4c3C2(C)C)=[N+](CCCCS(=O)(=O)[O-])c2ccc3ccccc3c21.[Na+] [indocyanine green (ICG)]
- shortest time after injection to ability to visualize the lymph nodes ([2]; animal model): 10 min

Compound: CC1(C)C(/C=C/C=C/C=C/C=C2\N(CCCCS(=O)(=O)O)c3ccc4ccccc4c3C2(C)C)=[N+](CCCCS(=O)(=O)[O-])c2ccc3ccccc3c21 [ICG, indocyanine green]
- toxicity in mammals [1]: low evidence of toxicity
- neuronal toxicity [1]: without evidence of neuronal toxicity
- emitted light wavelength [3]: 830 nm
- enterohepatic recirculation ([4]; in vivo): does not undergo enterohepatic recirculation
- metabolism in the body ([4]; in vivo): not metabolized
- reabsorption from the intestine ([4]; in vivo): not reabsorbed
- route of excretion ([4]; in vivo): excreted exclusively by the liver
- distribution after intravenous injection ([4]; normal vascular permeability): remains intravascular
- lymphatic channels leading to sentinel lymph nodes ([2]; 6, 12 and 24 hours post-injection): seen
- how long lymph nodes could be seen through the body wall after injection ([2]; animal studies): for days
- confirmation of lymph nodes by NIR microscopy and conventional histology ([2]; rats): All lymph nodes were confirmed
- visualization of inguinal and iliac sentinel lymph nodes with NIRF ([2]; rats): clearly visualized
- intraoperative confirmation of preoperative localization of inguinal nodes ([2]; rats, intraoperative NIRF): confirmed the preoperative localization of the inguinal nodes; also recorded: confirmed preoperative localization of all inguinal nodes

Compound: N=C(N)c1ccc(/C=C/c2ccc(C(=N)N)cc2O)cc1 [Fluorogold]
- toxicity in mammals [1]: low evidence of toxicity
- neuronal toxicity [1]: without evidence of neuronal toxicity
